Results as given in patent US20260325654A1, “METHODS AND COMPOSITIONS FOR TARGETED PROTEIN DEGRADATION” (Ranok Therapeutics (Hangzhou) Co. Ltd., priority 2023, published 2026).

What was measured:
NCIH727 = assay: CellTiter-Glo Reagent cancer cell line proliferation assay, NCIH727; type: cell-based, human; details: Homo sapiens, NCI-H727, 24 h, NCIH727, KRAS(G12V) heterozygous
Source text: (§1) The following cancer cell lines were employed: • AsPC-1 human pancreatic adenocarcinoma, homozygous KRAS(G12D), (ATCC, #CRL-1682); A-427 human lung carcinoma, heterozygous KRAS(G12D), (ATCC, #HTB-53); AGS human gastric adenocarcinoma, heterozygous KRAS(G12D), (ATCC, #CRL-1739); GP2D human colon adenocarcinoma, heterozygous KRAS(G12D), (Sigma Aldrich, 95090714); SW1990 human pancreatic adenocarcinoma, homozygous KRAS(G12D), (ATCC, #CRL2172); LU65A human lung giant cell carcinoma, heterozygous KRAS(G12C), (JCRB Cell Bank, #JCRB0054); NCIH727 human lung carcinoid, heterozygous KRAS(G12V), (ATCC, #CRL-5815); MKN1 human gastric adenosquamous carcinoma KRAS (wt), (JCRB Cell Bank, #JCRB0252). Cell lines were cultured according to ATCC, JCRB and Sigma Aldrich recommendations.
(§2) Cells were plated in 96-well tissue culture plates at 4,000 cells/well and incubated at 37° C./5% CO2 for 24 hr in 100 μl of media. 3-fold serial dilutions of each test compound were prepared ranging from 20 μM to 1.02 nM. Cells were then treated with test compounds at various concentrations with a final concentration of 0.5% DMSO/well, and then incubated at 37° C./5% CO2 for 24 hr. 100 μl of CellTiter-Glo® Reagent (Promega Corporation, Madison, WI) was added to each well and processed according manufacturer's protocol. Results were analyzed and IC50-values were calculated in GraphPad 7 software.

MKN1 = assay: CellTiter-Glo Reagent cancer cell line proliferation assay, MKN1; type: cell-based; details: Homo sapiens, MKN-1; MKN1, KRAS (wt), 24 hr
Source text: as §1, §2

KRAS(G12C) = target: T1, KRAS(G12C) (Homo sapiens, UniProt P01116, G12C); assay: KRAS Western Blot Protein Degradation Assay, LU65A; type: cell-based; details: 24 hr; for DC50: read-out: WB data LU65A DC50; for Dmax: read-out: WB data LU65A DMax
T1 construct: LU65A that expresses KRAS(G12C); host or cells: LU65A
Source text: as §1
(§3) Cell lines SW1990 and GP2D that express KRAS(G12D), LU65A that expresses KRAS(G12C), and NCIH727 that expresses KRAS(G12V) were seeded in 6- or 12-well tissue culture plates, and after 1 hr, test compounds were added at various concentrations and incubated at 37° C./5% CO2 for 24 hr. Cells were then washed with cold PBS, aspirated and cold RIPA buffer containing a protease/phosphatase inhibitor cocktail was added to lyse cells. After centrifugation, the total protein concentrations of cell lysates were determined using the BCA protein assay. Samples were normalized for equivalent protein concentrations, 5× SDS-PAGE loading buffer added and denatured at 100° C. for 10 min. 20 μl of each sample/well was loaded on a SDS-PAGE gel and electrophoresed for 20 min at 80 V, then 120 V for 1.5 hr. Gels were then electroblotted to nitrocellulose membranes using a wet-transfer method at 250 mA for 2.5 hr. Membranes were incubated with blocking buffer for 1 hr and washed 3 times with TBST for 5 min. Membranes were then incubated with anti-KRAS (Sigma-Aldrich, #SAB1404011) and anti-β-Actin monoclonal antibodies (Cell Signaling Technology, #3700) diluted in blocking buffer at 4° C. overnight per the manufacturer's recommendations. After washing 3 times, blots were incubated with appropriately labeled secondary antibodies for 1 hr at room temperature and washed again. Fluorescence imaging and quantitation was performed using a LI-COR Odyssey. Results was analyzed using GraphPad Prism 7 software. Compound concentrations that induced KRAS degradation (DC50 and DCmax) were calculated using GraphPad Prism 7 software.

LU65A = assay: CellTiter-Glo Reagent cancer cell line proliferation assay, LU65A; type: cell-based, human; details: Homo sapiens, 24 h, KRAS(G12C) heterozygous
Source text: as §1, §2

KRAS(G12V) = target: T2, KRAS(G12V) (Homo sapiens, UniProt P01116, G12V); assay: KRAS Western Blot Protein Degradation Assay, NCIH727; type: cell-based; details: for DC50: 24 hr, read-out: WB data NCIH727 DC50; for Dmax: NCI-H727, 24 hr, read-out: WB data NCIH727 DMax
T2 construct: anti-KRAS Western blot degradation by PROTACs recruiting CRBN or VHL
Source text: as §1, §3

AGS = assay: CellTiter-Glo Reagent cancer cell line proliferation assay, AGS; type: cell-based, human; details: Homo sapiens, 24 h, KRAS(G12D) heterozygous
Source text: as §1, §2

GP2D = assay: CellTiter-Glo Reagent cancer cell line proliferation assay, GP2D; type: cell-based; details: Homo sapiens, KRAS(G12D) heterozygous, 24 hr
Source text: as §1, §2

T1 sequence (P01116 1-185 isoform P01116-2 G12C limits assumed): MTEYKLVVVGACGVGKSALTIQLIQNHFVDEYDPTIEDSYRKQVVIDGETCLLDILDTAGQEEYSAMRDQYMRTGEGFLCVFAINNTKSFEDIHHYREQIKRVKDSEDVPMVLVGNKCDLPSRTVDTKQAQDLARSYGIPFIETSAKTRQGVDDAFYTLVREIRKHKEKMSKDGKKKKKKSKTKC
T2 sequence (P01116 1-188 isoform P01116-2 G12V): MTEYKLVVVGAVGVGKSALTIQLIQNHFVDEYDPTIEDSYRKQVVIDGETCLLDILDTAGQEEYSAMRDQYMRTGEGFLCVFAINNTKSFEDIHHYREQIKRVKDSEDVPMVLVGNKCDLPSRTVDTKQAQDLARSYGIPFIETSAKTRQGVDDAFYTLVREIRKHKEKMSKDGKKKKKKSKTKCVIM

Row | SMILES | IC50 (NCIH727) [nM] | IC50 (MKN1) [nM] | DC50 (KRAS(G12C)) [nM] | Dmax (KRAS(G12C)) [%] | IC50 (LU65A) [nM] | DC50 (KRAS(G12V)) [nM] | Dmax (KRAS(G12V)) [%] | IC50 (AGS) [nM] | IC50 (GP2D) [nM]
1 | C#Cc1c(F)ccc2cc(O)cc(-c3ncc4c(N5CCN(C(=O)C=C)[C@@H](CC#N)C5)nc(OCC5(CN6CCN(CC7CCN(c8ccc9c(c8)CN(C8CCC(=O)NC8=O)C9=O)CC7)CC6)CC5)nc4c3F)c12 (some centres unmarked) [Compound 79] | > 1000 | > 1000 | < 100 | > 50 | < 100 |  |  |  | 
2 | C#Cc1c(F)ccc2cc(O)cc(-c3ncc4c(N5CC6CCC(C5)N6C(=O)CC#N)nc(OCC5(CN6CCN(CC7CCN(c8ccc9c(c8)CN(C8CCC(=O)NC8=O)C9=O)CC7)CC6)CC5)nc4c3F)c12 (centres unmarked) [Compound 80] | < 100 |  | < 100 | > 50 | 100 to 1000 | 100 to 1000 | > 50 |  | 
3 | C#Cc1c(F)ccc2cc(O)cc(-c3nc(OC)c4c(N5CC6CCC(C5)N6C(=O)CC#N)nc(OCC5(CN6CCN(CC7CCN(c8ccc9c(c8)CN(C8CCC(=O)NC8=O)C9=O)CC7)CC6)CC5)nc4c3F)c12 (centres unmarked) [Compound 102] | 100 to 1000 | 100 to 1000 | > 1000 | 10 to 50 | 100 to 1000 | < 100 | > 50 | > 1000 | 100 to 1000
4 | C#Cc1c(F)ccc2cc(O)cc(-c3ncc4c(N5CCN(C(=O)CC#N)[C@@H](CC#N)C5)nc(OCC5(CN6CCN(CC7CCN(c8ccc9c(c8)CN(C8CCC(=O)NC8=O)C9=O)CC7)CC6)CC5)nc4c3F)c12 (stereo partly drawn) [Compound 103, 3-((2S)-2-(cyanomethyl)-4-(2-((1-((4-((1-(2-(2,6-dioxopiperidin-3-yl)-1-oxoisoindolin-5-yl)piperidin-4-yl)methyl)piperazin-1-yl)methyl)cyclopropyl)methoxy)-7-(8-ethynyl-7-fluoro-3-hydroxynaphthalen-1-yl)-8-fluoropyrido[4,3-d]pyrimidin-4-yl)piperazin-1-yl)-3-oxopropanenitrile] | > 1000 | > 1000 | > 1000 | 10 to 50 | > 1000 | > 1000 | > 50 | > 1000 | > 1000
5 | C#Cc1c(F)ccc2cc(O)cc(-c3ncc4c(N5CCN(C(=O)C(=C)F)[C@@H](CC#N)C5)nc(OCC5(CN6CCN(CC7CCN(c8ccc9c(c8)CN(C8CCC(=O)NC8=O)C9=O)CC7)CC6)CC5)nc4c3F)c12 (some centres unmarked) [Compound 105] |  | > 1000 | < 100 | > 50 | < 100 |  |  |  | 
6 | C#Cc1c(F)ccc2cc(O)cc(-c3ncc4c(N5CC6CCC(C5)N6C(=O)C(C)(C)C#N)nc(OCC5(CN6CCN(CC7CCN(c8ccc9c(c8)CN(C8CCC(=O)NC8=O)C9=O)CC7)CC6)CC5)nc4c3F)c12 (centres unmarked) [Compound 106] | > 1000 | < 100 | > 1000 | 10 to 50 | > 1000 | > 1000 | 10 to 50 | > 1000 | 100 to 1000
7 | C#Cc1c(F)ccc2cc(O)cc(-c3ncc4c(N5CC6CCC(C5)N6C(=O)C5(C#N)CC5)nc(OCC5(CN6CCN(CC7CCN(c8ccc9c(c8)CN(C8CCC(=O)NC8=O)C9=O)CC7)CC6)CC5)nc4c3F)c12 (centres unmarked) [Compound 107] | > 1000 | 100 to 1000 | 100 to 1000 | > 50 | 100 to 1000 | < 100 | > 50 | > 1000 | 100 to 1000
8 | C#Cc1c(F)ccc2cc(O)cc(-c3ncc4c(N5CC6CCC(C5)N6C(=O)C(C)C#N)nc(OCC5(CN6CCN(CC7CCN(c8ccc9c(c8)CN(C8CCC(=O)NC8=O)C9=O)CC7)CC6)CC5)nc4c3F)c12 (centres unmarked) [Compound 108] | < 100 | 100 to 1000 | < 100 | > 50 | < 100 | < 100 | > 50 | 100 to 1000 | 100 to 1000
9 | C#Cc1c(F)ccc2cc(O)cc(-c3ncc4c(N5CC6CCC(C5)N6C(=O)[C@@H](C)C#N)nc(OCC5(CN6CCN(CC7CCN(c8ccc9c(c8)CN(C8CCC(=O)NC8=O)C9=O)CC7)CC6)CC5)nc4c3F)c12 (some centres unmarked) [Compound 109] | 100 to 1000 | > 1000 |  |  | < 100 | < 100 | > 50 | 100 to 1000 | 100 to 1000
10 | O=CO.[2H]C([2H])([2H])Oc1nc(-c2cc(O)cc3ccc(F)c(C#C)c23)c(F)c2nc(OCC3(CN4CCN(CC5CCN(c6ccc7c(c6)CN(C6CCC(=O)NC6=O)C7=O)CC5)CC4)CC3)nc(N3CC4CCC(C3)N4C(=O)CCC#N)c12 (centres unmarked) [Compound 114] | < 100 | 100 to 1000 | < 100 | > 50 | < 100 | < 100 | > 50 | < 100 | < 100
11 | O=CO.[2H]C([2H])([2H])Oc1nc(-c2cc(O)cc3ccc(F)c(C#C)c23)c(F)c2nc(OCC3(CN4CCN(CC5CCN(c6ccc7c(c6)CN(C6CCC(=O)NC6=O)C7=O)CC5)CC4)CC3)nc(N3CC4CCC(C3)N4C(=O)CC(C)C#N)c12 (centres unmarked) [Compound 115] | < 100 | > 1000 | < 100 | > 50 | < 100 | < 100 | > 50 | < 100 | < 100
12 | [2H]C([2H])([2H])Oc1nc(-c2cc(O)cc3ccc(F)c(C#C)c23)c(F)c2nc(OCC3(CN4CCN(CC5CCN(c6ccc(NC7CCC(=O)NC7=O)cc6)CC5)CC4)CC3)nc(N3CC4CCC(C3)N4C(=O)CC#N)c12 (centres unmarked) [Compound 119] | 100 to 1000 | 100 to 1000 |  |  | 100 to 1000 |  |  | 100 to 1000 | 100 to 1000
13 | O=CO.[2H]C([2H])([2H])Oc1nc(-c2cc(O)cc3ccc(F)c(C#C)c23)c(F)c2nc(OCC3(CN4CCN(CC5CCN(c6ccc7c(c6)CN(C6CCC(=O)NC6=O)C7=O)CC5)CC4)CC3)nc(N3CC4CCC(C3)N4C(=O)C(C#N)CC(F)(F)F)c12 (centres unmarked) [Compound 121] | > 1000 | > 1000 |  |  | < 100 |  |  | > 1000 | 100 to 1000
14 | C#Cc1c(F)ccc2cc(O)cc(-c3nc(OC)c4c(N5CC6CCC(C5)N6C(=O)NCC#N)nc(OCC5(CN6CCN(CC7CCN(c8ccc9c(c8)CN(C8CCC(=O)NC8=O)C9=O)CC7)CC6)CC5)nc4c3F)c12 (centres unmarked) [Compound 122] | 100 to 1000 | > 1000 |  |  | < 100 |  |  | < 100 | < 100
15 | C#Cc1c(F)ccc2cc(O)cc(-c3nc(OC)c4c(N5CC6CCC(C5)N6C(=O)NCC(F)(F)F)nc(OCC5(CN6CCN(CC7CCN(c8ccc9c(c8)CN(C8CCC(=O)NC8=O)C9=O)CC7)CC6)CC5)nc4c3F)c12 (centres unmarked) [Compound 123] | < 100 | > 1000 |  |  | < 100 |  |  | < 100 | < 100
16 | C#Cc1c(F)ccc2cc(O)cc(-c3ncc4c(N5CC6CCC(C5)N6C(=O)/C(C#N)=C/C5CC5)nc(OCC5(CN6CCN(CC7CCN(c8ccc9c(c8)CN(C8CCC(=O)NC8=O)C9=O)CC7)CC6)CC5)nc4c3F)c12 (centres unmarked) [Compound 124] | > 1000 | > 1000 |  |  | < 100 |  |  | 100 to 1000 | 100 to 1000
